# Results taken from patent publication US20250154173A1 (Merck Sharp & Dohme LLC, priority 2023, published 2025).
# Molecular target: T1, GST-RIPK1 (recombinant GST-RIPK1 kinase domain (residues 1-327)) (Homo sapiens, UniProt Q13546)
# T1 construct: recombinant GST-RIPK1 kinase domain (residues 1-327) enzyme produced from baculovirus-transfected Sf21 cells; host or cells: baculovirus-transfected Sf21 insect cells
# T1 sequence (Q13546 1-327): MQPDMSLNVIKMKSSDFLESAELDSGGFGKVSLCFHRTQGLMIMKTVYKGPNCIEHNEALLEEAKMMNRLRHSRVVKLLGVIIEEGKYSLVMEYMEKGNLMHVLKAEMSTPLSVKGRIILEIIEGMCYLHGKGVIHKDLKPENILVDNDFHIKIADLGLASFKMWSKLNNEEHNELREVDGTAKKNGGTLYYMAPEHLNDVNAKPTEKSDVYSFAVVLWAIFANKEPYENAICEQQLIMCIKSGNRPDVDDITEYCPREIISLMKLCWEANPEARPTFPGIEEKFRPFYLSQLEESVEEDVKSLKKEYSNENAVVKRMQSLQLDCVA
# Test: RIPK1-ADP-Glo Enzymatic Assay
# Format: biochemical
# Conditions: ten-point titration, top compound concentration of 100000 nM; 25 nM GST-RIPK1, 300 μM ATP, 3 μM dephosphorylated-MBP; 30 min pre-incubation, 150 min reaction
# Procedure, shortened: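 ADP-Glo luminescence quantifies ADP formed over 150 minutes by 25 nM Sf21-produced GST-RIPK1 (1-327) using 300 μM ATP and 3 μM dephosphorylated MBP, following 30-minute compound preincubation at 1% DMSO. Ten-point 1:3 series from 100000 nM gave EC50 via four-parameter sigmoidal regression.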
row,Structure (SMILES),EC50 [nM]
1,"O=C1N2[C@@H](CC[C@H]2c2cc(F)cc(F)c2)O[C@]12C[C@H](Oc1cc(-n3cccn3)ncn1)C2 [Example 9.6, (5′S,7a′R)-5′-(3,5-difluorophenyl)-3-{[6-(1H-pyrazol-1-yl)pyrimidin-4-yl]oxy}tetrahydro-3′H-spiro[cyclobutane-1,2′-pyrrolo[2,1-b][1,3]oxazol]-3′-one]",12
2,"Cc1nc2c(OC3CC4(C3)O[C@@H]3CC[C@@H](c5cc(F)cc(F)c5)N3C4=O)ncnc2s1 (stereo partly drawn) [Example 9.7, (5′S,7a′R)-5′-(3,5-difluorophenyl)-3-[(2-methyl[1,3]thiazolo[5,4-d]pyrimidin-7-yl)oxy]tetrahydro-3′H-spiro[cyclobutane-1,2′-pyrrolo[2,1-b][1,3]oxazol]-3′-one]",201
3,"O=C1N2[C@@H](CC[C@H]2c2cc(F)cc(F)c2)O[C@]12C[C@@H](Oc1cc(F)ncn1)C2 [Example 9.10, (1s,3S,5′S,7a′R)-5′-(3,5-difluorophenyl)-3-((6-fluoropyrimidin-4-yl)oxy)tetrahydro-3′H-spiro[cyclobutane-1,2′-pyrrolo[2,1-b]oxazol]-3′-one]",35
4,"N#Cc1cncc(O[C@H]2C[C@@]3(C2)O[C@@H]2CC[C@@H](c4ccccc4)N2C3=O)n1 [Example 9.16, 6-{[(1r,3R,5′S,7a′R)-3′-oxo-5′-phenyltetrahydro-3′H-spiro[cyclobutane-1,2′-pyrrolo[2,1-b][1,3]oxazol]-3-yl]oxy}pyrazine-2-carbonitrile]",78
5,"N#Cc1cc(O[C@H]2C[C@@]3(C2)O[C@@H]2CC[C@@H](c4ccccc4)N2C3=O)ncn1 [Example 9.17, 6-{[(1r,3R,5′S,7a′R)-3′-oxo-5′-phenyltetrahydro-3′H-spiro[cyclobutane-1,2′-pyrrolo[2,1-b][1,3]oxazol]-3-yl]oxy}pyrimidine-4-carbonitrile]",18
6,"N#Cc1ccnc(O[C@H]2C[C@@]3(C2)O[C@@H]2CC[C@@H](c4cc(F)cc(F)c4)N2C3=O)n1 [Example 9.20, 2-{[(1r,3R,5′S,7a′R)-5′-(3,5-difluorophenyl)-3′-oxotetrahydro-3′H-spiro[cyclobutane-1,2′-pyrrolo[2,1-b][1,3]oxazol]-3-yl]oxy}pyrimidine-4-carbonitrile]",53
7,"O=C1N2[C@@H](CC[C@H]2c2cc(F)cc(F)c2)O[C@]12C[C@H](Oc1nccc3nccn13)C2 [Example 9.21, (1r,3R,5′S,7a′R)-5′-(3,5-difluorophenyl)-3-[(imidazo[1,2-c]pyrimidin-5-yl)oxy]tetrahydro-3′H-spiro[cyclobutane-1,2′-pyrrolo[2,1-b][1,3]oxazol]-3′-one]",14
8,"O=C1N2[C@@H](CC[C@H]2c2cc(F)cc(F)c2)O[C@]12C[C@H](Oc1ncnn3cccc13)C2 [Example 9.22, (1r,3R,5′S,7a′R)-5′-(3,5-difluorophenyl)-3-[(pyrrolo[2,1-f][1,2,4]triazin-4-yl)oxy]tetrahydro-3′H-spiro[cyclobutane-1,2′-pyrrolo[2,1-b][1,3]oxazol]-3′-one]",11
9,"O=C1N2[C@@H](CC[C@H]2c2cc(F)cc(F)c2)O[C@]12C[C@H](Oc1nccc3ncnn13)C2 [Example 9.23, (1r,3R,5′S,7a′R)-5′-(3,5-difluorophenyl)-3-[([1,2,4]triazolo[1,5-c]pyrimidin-5-yl)oxy]tetrahydro-3′H-spiro[cyclobutane-1,2′-pyrrolo[2,1-b][1,3]oxazol]-3′-one]",55
10,"O=C1N2[C@@H](CC[C@H]2c2ccccc2)O[C@]12C[C@H](Oc1ncnn3cccc13)C2 [Example 9.24, (1r,3R,5′S,7a′R)-5′-phenyl-3-[(pyrrolo[2,1-f][1,2,4]triazin-4-yl)oxy]tetrahydro-3′H-spiro[cyclobutane-1,2′-pyrrolo[2,1-b][1,3]oxazol]-3′-one]",11
11,"O=C1N2[C@@H](CC[C@H]2c2ccc(F)cc2)O[C@]12C[C@H](Oc1ncnn3cccc13)C2 [Example 9.27, (1r,3R,5′S,7a′R)-5′-(4-fluorophenyl)-3-[(pyrrolo[2,1-f][1,2,4]triazin-4-yl)oxy]tetrahydro-3′H-spiro[cyclobutane-1,2′-pyrrolo[2,1-b][1,3]oxazol]-3′-one]",12
12,"N#Cc1ccnc(O[C@H]2C[C@@]3(C2)O[C@@H]2CC[C@@H](c4ccc(F)cc4)N2C3=O)c1 [Example 9.28, 2-{[(1r,3R,5′S,7a′R)-5′-(4-fluorophenyl)-3′-oxotetrahydro-3′H-spiro[cyclobutane-1,2′-pyrrolo[2,1-b][1,3]oxazol]-3-yl]oxy}pyridine-4-carbonitrile]",16
13,"Cc1nc(O[C@H]2C[C@@]3(C2)O[C@@H]2CC[C@@H](c4cc(F)cc(F)c4)N2C3=O)c2cccn2n1 [Example 9.29, (1r,3R,5′S,7a′R)-5′-(3,5-difluorophenyl)-3-[(2-methylpyrrolo[2,1-f][1,2,4]triazin-4-yl)oxy]tetrahydro-3′H-spiro[cyclobutane-1,2′-pyrrolo[2,1-b][1,3]oxazol]-3′-one]",47
14,"O=C1N2[C@@H](CC[C@H]2c2cc(F)cc(F)c2)O[C@]12C[C@H](Oc1ncnc3sccc13)C2 [Example 9.30, (1r,3R,5′S,7a′R)-5′-(3,5-difluorophenyl)-3-[(thieno[2,3-d]pyrimidin-4-yl)oxy]tetrahydro-3′H-spiro[cyclobutane-1,2′-pyrrolo[2,1-b][1,3]oxazol]-3′-one]",9
15,"Cc1cc2c(O[C@H]3C[C@@]4(C3)O[C@@H]3CC[C@@H](c5cc(F)cc(F)c5)N3C4=O)ncnc2o1 [Example 9.32, (1r,3R,5′S,7a′R)-5′-(3,5-difluorophenyl)-3-[(6-methylfuro[2,3-d]pyrimidin-4-yl)oxy]tetrahydro-3′H-spiro[cyclobutane-1,2′-pyrrolo[2,1-b][1,3]oxazol]-3′-one]",8

# Continued by falling EC50, values first:
row,EC50 [nM],Structure (SMILES)
1,446,"N#Cc1cc(O[C@H]2C[C@]3(C2)O[C@@H]2CC[C@@H](c4cc(F)cc(F)c4)N2C3=O)ncn1 [Example 9.12, 6-(((1s,3S,5′S,7a′R)-5′-(3,5-difluorophenyl)-3′-oxotetrahydro-3′H-spiro[cyclobutane-1,2′-pyrrolo[2,1-b]oxazol]-3-yl)oxy)pyrimidine-4-carbonitrile]"
2,276,"O=C1N2[C@@H](CC[C@H]2c2cc(F)cc(F)c2)O[C@]12C[C@H](Oc1cccc3ncnn13)C2 [Example 9.26, (1r,3R,5′S,7a′R)-5′-(3,5-difluorophenyl)-3-[([1,2,4]triazolo[1,5-a]pyridin-5-yl)oxy]tetrahydro-3′H-spiro[cyclobutane-1,2′-pyrrolo[2,1-b][1,3]oxazol]-3′-one]"
3,210,"O=C1N2[C@@H](CC[C@H]2c2cc(F)cc(F)c2)O[C@]12C[C@H](Oc1cccn3nnnc13)C2 [Example 9.25, (1r,3R,5′S,7a′R)-5′-(3,5-difluorophenyl)-3-[(tetrazolo[1,5-a]pyridin-8-yl)oxy]tetrahydro-3′H-spiro[cyclobutane-1,2′-pyrrolo[2,1-b][1,3]oxazol]-3′-one]"
4,139,"N#Cc1ncccc1O[C@H]1C[C@@]2(C1)O[C@@H]1CC[C@@H](c3ccccc3)N1C2=O [Example 9.14, 3-{[(1r,3R,5′S,7a′R)-3′-oxo-5′-phenyltetrahydro-3′H-spiro[cyclobutane-1,2′-pyrrolo[2,1-b][1,3]oxazol]-3-yl]oxy}pyridine-2-carbonitrile]"
5,108,"O=C1N2[C@@H](CC[C@H]2c2cc(F)cc(F)c2)O[C@]12C[C@@H](Oc1cc(Cl)ncn1)C2 [Example 9.13, (1s,3S,5′S,7a′R)-3-((6-chloropyrimidin-4-yl)oxy)-5′-(3,5-difluorophenyl)tetrahydro-3′H-spiro[cyclobutane-1,2′-pyrrolo[2,1-b]oxazol]-3′-one]"
6,64,"N#Cc1ccnc(O[C@H]2C[C@@]3(C2)O[C@@H]2CC[C@@H](c4ccccc4)N2C3=O)n1 [Example 9.19, 2-{[(1r,3R,5′S,7a′R)-3′-oxo-5′-phenyltetrahydro-3′H-spiro[cyclobutane-1,2′-pyrrolo[2,1-b][1,3]oxazol]-3-yl]oxy}pyrimidine-4-carbonitrile]"
7,24,"O=C1N2[C@@H](CC[C@H]2c2cc(F)cc(F)c2)OC12CC(Oc1cc(-n3cccn3)ncn1)C2 (stereo partly drawn) [Example 9.8, (5′S,7a′R)-5′-(3,5-difluorophenyl)-3-{[6-(1H-pyrazol-1-yl)pyrimidin-4-yl]oxy}tetrahydro-3′H-spiro[cyclobutane-1,2′-pyrrolo[2,1-b][1,3]oxazol]-3′-one]"
8,21,"Cc1cn(-c2cc(OC3CC4(C3)O[C@@H]3CC[C@@H](c5cc(F)cc(F)c5)N3C4=O)ncn2)cn1 (stereo partly drawn) [Example 9.11, (5′S,7a′R)-5′-(3,5-difluorophenyl)-3-{[6-(4-methyl-1H-imidazol-1-yl)pyrimidin-4-yl]oxy}tetrahydro-3′H-spiro[cyclobutane-1,2′-pyrrolo[2,1-b][1,3]oxazol]-3′-one]"
9,9,"O=C1N2[C@@H](CC[C@H]2c2cc(F)cc(F)c2)O[C@]12C[C@H](Oc1ncnc3occc13)C2 [Example 9.31, (1r,3R,5′S,7a′R)-5′-(3,5-difluorophenyl)-3-[(furo[2,3-d]pyrimidin-4-yl)oxy]tetrahydro-3′H-spiro[cyclobutane-1,2′-pyrrolo[2,1-b][1,3]oxazol]-3′-one]"
